Reference: patent US20100035862A1, “NOVEL AZA-CYCLIC INDOLE-2-CARBOXAMIDES AND METHODS OF USE THEREOF” (ABBOTT LABORATORIES, priority 2008, published 2010)

These molecules were tested against T1, human α4β2 (Homo sapiens, UniProt P17787+P43681) (assay: Calcium flux assay (FLIPR) in HEK 293 cells expressing NNR subtype; potentiation of submaximal agonist response). Settings: α4β2 PAM; response to submaximal agonist (EC20-30%) such as nicotine.
T1 construct: expressed in transfected cells
Type: cell-based
From the text: One manner to characterize α4β2 PAM activity is by characterization in clonal cell lines (for example, human embryonic kidney 293 cells) expressing the human neuronal nicotinic acetylcholine receptor subtype α4β2, particularly by use of Fluorescent Image Plate Reader technology. Effects on calcium flux or membrane potential changes can be assessed. Such assays have been reported and further details for carrying out, the assays can be obtained in International Publication No. WO 2006/114400. Another method to identify and characterize allosteric modulator activity is by expressing the α4β2 subunits in Xenopus oocytes, and by measuring electrophysiological effects on ligand-evoked current responses as previously described in Curtis, L., et al., Molecular Pharmacology, 61: 127-135, 2002.
To determine the effectiveness of representative compounds of this invention as ligands for α4β2 PAM activity, the compounds of the invention can be evaluated according to the Calcium Flux Assay described below.
Calcium Flux Assays Using Cells Expressing NNR Subtypes
Human embryonic kidney (HEK) 293 cells stably expressing human α4β2 or (3β4 combinations are grown to confluency in 162 cm^2 tissue culture flasks in DMEM media supplemented with 10% FBS and 25 μg/mL zeocin and 200 μg/mL hygromycin B. Cells expressing rat or ferret subunits may also be used. For assessing α3* or α7* selectivity, IMR-32 cells may also be used. IMR-32 neuroblastoma cells (ATCC) are grown to confluency in 162 cm^2 tissue culture flasks in minimum essential media supplemented with 10% FBS and 1 mM sodium pyruvate, 1% non-essential amino acids and 1% antibiotic-antimycotic. For the calcium flux assay, c cells are then dissociated using cell dissociation buffer and 100-150 μL per well of 3.5×10^5 cells/mL cell suspension (˜50,000-100,000 cells/well) was plated into 96-well black plates (poly-D-lysine precoated) with clear bottom and maintained for 24-48 hours in a tissue culture incubator at 37° C. under an atmosphere of 5% CO2: 95% air. Other clonal cell lines or primary cell cultures that express endogenous α4* nicotinic receptors may also be used in this assay. Calcium flux was measured using calcium-3 assay kit (Molecular Devices, Sunnyvale, Calif.) or fluo-4 (Invitrogen). A stock solution of the dye was prepared by dissolving each vial supplied by the vendor in Hank's balanced-salt solution buffer (HBSS) or 150 mM NMDG, 20 mM calcium chloride containing 10 mM HEPES. The stock-solution was diluted 1:20 using a the same buffer before use. The growth media was removed from the cells. The cells were loaded with 100 μL of the dye per well and incubated at room temperature for up to one hour for HEK 293 clonal stable cell lines or 30 minutes-45 minutes at 37° C. for IMR-32 cells. Fluorescence measurements were read simultaneously from all the wells by a Fluorometic Imaging Plate Reader (FLIPR) at an excitation wavelength of 480 nm and an emission wavelength of 520 nm. Baseline fluorescence was measured for the first 6 seconds at which 3× concentrations of modulator/test compounds were added to the cell plate at 50 μL and incubated for five minutes. The fluorescence intensity was captured every second for the first 1 minute followed by every 5 seconds for an additional 4 minutes. This procedure was followed by 50 μL of 4× concentration of agonist and readings were taken for a period of 3-5 minutes as described above.
The ability of test compounds to positively modulate the response (i.e., increase the response) induced by a submaximal concentration of agonist (EC20-30%) such as nicotine is measured. Potentiation is measured based on peak fluorescence responses. by screening compounds at fixed concentrations or in a concentration-response manner to derive, EC50 values. The concentration dependence of changes in fluorescence responses is fitted by nonlinear regression analysis (GraphPad Prism, San Diego, Calif.) to obtain EC50 values. […]

T1 sequence (P43681 29-627 limits assumed): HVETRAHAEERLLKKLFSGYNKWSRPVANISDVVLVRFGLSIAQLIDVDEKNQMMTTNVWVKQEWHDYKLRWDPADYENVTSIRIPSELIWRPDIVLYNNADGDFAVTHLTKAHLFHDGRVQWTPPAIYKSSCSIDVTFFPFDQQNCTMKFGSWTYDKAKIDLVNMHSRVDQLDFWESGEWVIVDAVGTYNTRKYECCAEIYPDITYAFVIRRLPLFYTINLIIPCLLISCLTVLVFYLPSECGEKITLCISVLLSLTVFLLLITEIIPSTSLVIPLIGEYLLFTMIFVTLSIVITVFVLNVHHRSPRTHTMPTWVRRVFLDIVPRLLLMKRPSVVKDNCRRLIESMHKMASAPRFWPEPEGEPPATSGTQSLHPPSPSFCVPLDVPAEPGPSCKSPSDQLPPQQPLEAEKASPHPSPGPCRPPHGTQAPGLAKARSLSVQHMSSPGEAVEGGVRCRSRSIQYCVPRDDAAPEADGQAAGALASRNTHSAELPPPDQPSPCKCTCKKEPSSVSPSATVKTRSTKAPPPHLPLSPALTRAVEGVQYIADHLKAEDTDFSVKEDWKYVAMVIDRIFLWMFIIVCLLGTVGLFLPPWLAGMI
T1 sequence (P17787 26-502): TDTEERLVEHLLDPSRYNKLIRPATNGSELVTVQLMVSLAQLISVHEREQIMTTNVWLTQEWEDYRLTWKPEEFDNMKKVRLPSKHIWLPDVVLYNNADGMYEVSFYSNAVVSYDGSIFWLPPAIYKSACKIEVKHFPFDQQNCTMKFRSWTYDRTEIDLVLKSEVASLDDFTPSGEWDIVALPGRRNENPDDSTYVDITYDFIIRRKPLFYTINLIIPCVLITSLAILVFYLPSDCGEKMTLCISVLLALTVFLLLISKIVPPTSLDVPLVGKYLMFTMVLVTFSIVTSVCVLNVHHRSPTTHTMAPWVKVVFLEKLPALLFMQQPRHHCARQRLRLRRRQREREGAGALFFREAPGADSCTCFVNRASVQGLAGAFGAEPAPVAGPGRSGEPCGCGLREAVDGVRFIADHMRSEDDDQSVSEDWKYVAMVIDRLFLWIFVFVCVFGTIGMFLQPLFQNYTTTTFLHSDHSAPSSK

SMILES	Activity (allostertc effects—potentiation of fluorescence responses)
Cc1ccc(C)c2c(C)c(C(=O)N[C@@H]3CCNC3)[nH]c12 [Example 1, (R)-3,4,7-trimethyl-N-(pyrrolidin-3-yl)-1H-indole-2-carboxamide]	a (“a” denotes active compounds (>100%))
CC(C)(C)c1ccc2cc(C(=O)N[C@@H]3CCNC3)[nH]c2c1 [Example 10, (R)-6-tert-butyl-N-(pyrrolidin-3-yl)-1H-indole-2-carboxamide]	a (“a” denotes active compounds (>100%))
O=C(N[C@@H]1CCNC1)c1cc2ccc(-c3ccccc3)cc2[nH]1 [Example 13, (R)-6-phenyl-N-(pyrrolidin-3-yl)-1H-indole-2-carboxamide]	a (“a” denotes active compounds (>100%))
CN1CC[C@@H](NC(=O)c2cc3cc(Cl)ccc3[nH]2)C1 [Example 31]	a (“a” denotes active compounds (>100%))
CN1CC[C@H](NC(=O)c2cc3c(Cl)cc(Cl)cc3[nH]2)C1 [Example 40, (S)-4,6-dichloro-N-(1-methylpyrrolidin-3-yl)-1H-indole-2-carboxamide]	a (“a” denotes active compounds (>100%))
Cc1ccc(C)c2c(C)c(C(=O)N[C@@H]3CCCNC3)[nH]c12 [Example 108, (R)-3,4,7-trimethyl-N-(piperidin-3-yl)-1H-indole-2-carboxamide]	a (“a” denotes active compounds (>100%))
Cc1ccc(C)c2c(C)c(C(=O)N[C@@H]3CCCN(C)C3)[nH]c12.Cc1ccc(S(=O)(=O)O)cc1 [Example 109, (R)-3,4,7-trimethyl-N-(1-methylpiperidin-3-yl)-1H-indole-2-carboxamide tosylate]	a (“a” denotes active compounds (>100%))
O=C(N[C@@H]1CCCNC1)c1cc2c(Cl)cc(Cl)cc2[nH]1 [Example 114, (R)-4,6-dichloro-N-(piperidin-3-yl)-1H-indole-2-carboxamide]	a (“a” denotes active compounds (>100%))
